Where two headings read alike, the source gives them in different places.
Target: T1, CCR2 (Homo sapiens, UniProt P41597)
T1 sequence (P41597 1-360 isoform P41597-2): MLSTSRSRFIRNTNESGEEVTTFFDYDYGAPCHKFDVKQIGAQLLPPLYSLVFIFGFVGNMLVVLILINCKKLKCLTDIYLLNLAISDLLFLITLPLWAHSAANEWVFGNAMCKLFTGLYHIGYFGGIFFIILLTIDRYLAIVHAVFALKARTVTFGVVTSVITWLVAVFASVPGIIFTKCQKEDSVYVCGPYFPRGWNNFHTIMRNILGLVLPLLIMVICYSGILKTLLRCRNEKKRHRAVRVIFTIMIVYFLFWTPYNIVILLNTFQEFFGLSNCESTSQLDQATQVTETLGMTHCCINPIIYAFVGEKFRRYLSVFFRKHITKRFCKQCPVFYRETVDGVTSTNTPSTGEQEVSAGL
Conditions: for inhibition at 25 µM: read-out: Inhibition of MCP-1 Binding, percent inhibition

| SMILES | IC50 [µM] | other results |
| --- | --- | --- |
| CCOC(=O)C(C1CCN(C(=O)/C=C/c2cc(F)c(F)c(F)c2)CC1)N1CCC(c2c[nH]c3ncccc23)CC1 (stereo not drawn) [Cpd 152, [4-(1H-pyrrolo[2,3-b]pyridin-3-yl)-piperidin-1-yl]-{1-[(2E)-3-(3,4,5-trifluoro-phenyl)-acryloyl]-piperidin-4-yl}-acetic acid ethyl ester] | 1.9 | – |
| O=C(O)C(C1CCN(C(=S)Nc2cccc(Br)c2)CC1)N1CCC(c2c[nH]c3ccccc23)CC1 (stereo not drawn) [Cpd 56, [1-(3-bromo-phenylthiocarbamoyl)-piperidin-4-yl]-[4-(1H-indol-3-yl)-piperidin-1-yl]-acetic acid] | 0.06 | – |
| O=C(O)C(C1CCN(C(=O)/C=C/c2ccc(Cl)c(Cl)c2)CC1)N1CCC(c2ccc(Cl)cc2)CC1 (stereo not drawn) [Cpd 1, [4-(4-chloro-phenyl)-piperidin-1-yl]-{1-[(2E)-3-(3,4-dichloro-phenyl)-acryloyl]-piperidin-4-yl}-acetic acid] | 0.253 | – |
| O=C(/C=C/c1ccc(C(F)(F)F)cc1)N1CCC(C(CCl)N2CCC(c3ccc(Cl)cc3)CC2)CC1 (stereo not drawn) [Cpd 247, (2E)-1-(4-{2-chloro-1-[4-(4-chloro-phenyl)-piperidin-1-yl]-ethyl}-piperidin-1-yl)-3-(4-trifluoromethyl-phenyl)-propenone] | – | inhibition at 25 µM: 53% |
| CC(=O)OCC(C1CCN(C(=O)OC(C)(C)C)CC1)N1CCC(c2c[nH]c3ccccc23)CC1 (stereo not drawn) [Cpd 234, 4-{2-acetoxy-1-[4-(1H-indol-3-yl)-piperidin-1-yl]-ethyl}-piperidine-1-carboxylic acid tert-butyl ester] | 11.2 | – |
| CCNC(=O)NCC(C1CCN(C(=O)/C=C/c2cc(F)c(F)c(F)c2)CC1)N1CCC(c2c[nH]c3ccccc23)CC1 (stereo not drawn) [Cpd 228] | 2.4 | – |
| O=C(O)C(C1CCN(C(=O)/C=C/c2cc(F)c(F)c(F)c2)CC1)N1CCC(Cc2c[nH]c3ccccc23)CC1 (stereo not drawn) [Cpd 12, [4-(1H-indol-3-ylmethyl)-piperidin-1-yl]-{1-[(2E)-3-(3,4,5-trifluoro-phenyl)-acryloyl]-piperidin-4-yl}-acetic acid] | 0.41 | – |
| N=C(NC(=O)c1cc(F)c(F)c(F)c1)N1CCC(C(C(=O)O)N2CCC(c3c[nH]c4ccccc34)CC2)CC1 (stereo not drawn) [Cpd 52, {1-[imino-(3,4,5-trifluoro-benzoylamino)-methyl]-piperidin-4-yl}-[4-(1H-indol-3-yl)-piperidin-1-yl]-acetic acid] | 0.03 | – |
| O=C(O)C(C1CCN(C(=O)Nc2ccc(F)cc2)CC1)N1CCC(c2c[nH]c3ccccc23)CC1 (stereo not drawn) [Cpd 90, [1-(4-fluoro-phenylcarbamoyl)-piperidin-4-yl]-[4-(1H-indol-3-yl)-piperidin-1-yl]-acetic acid] | 0.48 | – |
| O=CNCC(C1CCN(C(=O)/C=C/c2cc(F)cc(F)c2)CC1)N1CCC(c2c[nH]c3ccccc23)CC1 (stereo not drawn) [Cpd 221] | 0.41 | – |
| O=C(CC1CCN(C(C(=O)O)C2CCN(C(=O)/C=C/c3cc(F)c(F)c(F)c3)CC2)CC1)NCc1ccccc1 (stereo not drawn) [Cpd 149] | 16.6 | – |
| O=C(CC1CCN(C(C(=O)O)C2CCN(C(=O)/C=C/c3cc(F)cc(F)c3)CC2)CC1)NCc1ccccc1 (stereo not drawn) [Cpd 148, [4-(benzylcarbamoyl-methyl)-piperidin-1-yl]-{1-[(2E)-3-(3,5-difluoro-phenyl)-acryloyl]-piperidin-4-yl}-acetic acid] | 8.8 | – |
| COc1ccc(NC(=O)N2CCC(C(C(=O)O)N3CCC(c4c[nH]c5ccccc45)CC3)CC2)cc1Cl (stereo not drawn) [Cpd 67, [1-(3-chloro-4-methoxy-phenylcarbamoyl)-piperidin-4-yl]-[4-(1H-indol-3-yl)-piperidin-1-yl]-acetic acid] | 0.845 | – |
| O=CNCC(C1CCN(C(=O)/C=C/c2ccsc2)CC1)N1CCC(c2c[nH]c3ccccc23)CC1 (stereo not drawn) [Cpd 225] | 1.3 | – |
| O=C(O)C(C1CCN(C(=O)/C=C/c2cc(F)c(F)c(F)c2)CC1)N1CCC(n2ccc3ccccc32)CC1 (stereo not drawn) [Cpd 10, (4-indol-1-yl-piperidin-1-yl)-{1-[(2E)-3-(3,4,5-trifluoro-phenyl)-acryloyl]-piperidin-4-yl}-acetic acid] | 8.6 | – |
| O=CNCC(C1CCN(C(=O)Nc2ccc(Cl)c(Cl)c2)CC1)N1CCC(c2c[nH]c3ccccc23)CC1 (stereo not drawn) [Cpd 226] | 2.1 | – |
| O=C(/C=C/c1cc(F)c(F)c(F)c1)N1CCC(C(CO)N2CCC(c3coc4ncccc34)CC2)CC1 (stereo not drawn) [Cpd 248, (2E)-1-{4-[1-(4-furo[2,3-b]pyridin-3-yl-piperidin-1-yl)-2-hydroxy-ethyl]-piperidin-1-yl}-3-(3,4,5-trifluoro-phenyl)-propenone] | 1.9 | – |
| CN(C)CC(=O)NCC(C1CCN(C(=O)/C=C/c2cc(F)cc(F)c2)CC1)N1CCC(c2c[nH]c3ccccc23)CC1 (stereo not drawn) [Cpd 252] | 5.8 | – |

| SMILES | IC50 [µM] | other results |
| --- | --- | --- |
| CS(=O)(=O)Nc1ccc(C2CCN(C(C(=O)O)C3CCN(C(=O)/C=C/c4cc(F)c(F)c(F)c4)CC3)CC2)cc1 (stereo not drawn) [Cpd 206, [4-(4-methanesulfonylamino-phenyl)-piperidin-1-yl]-{1-[(2E)-3-(3,4,5-trifluoro-phenyl)-acryloyl]-piperidin-4-yl}-acetic acid] | 2 | – |
| COc1ccc(C2CCN(C(C(=O)O)C3CCN(C(=O)/C=C/c4cc(F)c(F)c(F)c4)CC3)CC2)cc1 (stereo not drawn) [Cpd 5, [4-(4-methoxy-phenyl)-piperidin-1-yl]-{1-[(2E)-3-(3,4,5-trifluoro-phenyl)-acryloyl]-piperidin-4-yl}-acetic acid] | 0.84 | – |
| COc1cccc(C2CCN(C(CO)C3CCN(C(=O)/C=C/c4cc(F)cc(F)c4)CC3)CC2)c1 (stereo not drawn) [Cpd 197] | 1.2 | – |
| COC(=O)NCC(C1CCN(C(=O)/C=C/c2cccc(C)c2)CC1)N1CCC(c2c[nH]c3ccccc23)CC1 (stereo not drawn) [Cpd 241] | – | inhibition at 25 µM: 58% |
| O=C(O)C(C1CCN(C(=O)/C=C/c2cc(F)cc(F)c2)CC1)N1CCC(Cc2c[nH]c3ccccc23)CC1 (stereo not drawn) [Cpd 11, {1-[(2E)-3-(3,5-difluoro-phenyl)-acryloyl]-piperidin-4-yl}-[4-(1H-indol-3-ylmethyl)-piperidin-1-yl]-acetic acid] | 2.17 | – |
| CN(C)CC(C1CCN(C(=O)/C=C/c2cc(F)cc(F)c2)CC1)N1CCC(c2c[nH]c3ccccc23)CC1 (stereo not drawn) [Cpd 130, (2E)-3-(3,5-difluoro-phenyl)-1-(4-{2-dimethylamino-1-[4-(1H-indol-3-yl)-piperidin-1-yl]-ethyl}-piperidin-1-yl)-propenone] | 8.55 | – |
| COC(=O)C(C1CCN(C(=O)/C=C/c2cc(F)cc(F)c2)CC1)N1CCC(c2ccc(OC)cc2)CC1 (stereo not drawn) [Cpd 3, {1-[(2E)-3-(3,5-difluoro-phenyl)-acryloyl]-piperidin-4-yl}-[4-(4-methoxy-phenyl)-piperidin-1-yl]-acetic acid methyl ester] | 3.8 | – |
| COc1ccc(C2CCN(C(CO)C3CCN(C(=O)/C=C/c4cc(F)c(F)cc4F)CC3)CC2)cc1 (stereo not drawn) [Cpd 140, (2E)-1-(4-{2-hydroxy-1-[4-(4-methoxy-phenyl)-piperidin-1-yl]-ethyl}-piperidin-1-yl)-3-(2,4,5-trifluoro-phenyl)-propenone] | – | IC50 (read-out: Inhibition of MCP-1 Binding IC50, 125I labeled MCP-1 binding to CCR2, THP-1 cells): 1.6 µM |
| O=C(O)C(C1CCN(C(=S)Nc2cc(F)cc(F)c2)CC1)N1CCC(c2c[nH]c3ccccc23)CC1 (stereo not drawn) [Cpd 55, [1-(3,5-difluoro-phenylthiocarbamoyl)-piperidin-4-yl]-[4-(1H-indol-3-yl)-piperidin-1-yl]-acetic acid] | 0.115 | – |
| O=CNCC(C1CCN(C(=O)/C=C/c2cccc(C(F)(F)F)c2)CC1)N1CCC(c2c[nH]c3ccccc23)CC1 (stereo not drawn) [Cpd 224] | – | inhibition at 25 µM: 54% |
| N=C(NC(=O)c1ccc(Cl)c(Cl)c1)N1CCC(C(C(=O)O)N2CCC(c3c[nH]c4ccccc34)CC2)CC1 (stereo not drawn) [Cpd 50, {1-[(3,4-dichloro-benzoylamino)-imino-methyl]-piperidin-4-yl}-[4-(1H-indol-3-yl)-piperidin-1-yl]-acetic acid] | 0.03 | – |
| O=C(O)C(C1CCN(C(=O)NCc2ccc(Cl)c(Cl)c2)CC1)N1CCC(c2c[nH]c3ccccc23)CC1 (stereo not drawn) [Cpd 84, [1-(3,4-dichloro-benzylcarbamoyl)-piperidin-4-yl]-[4-(1H-indol-3-yl)-piperidin-1-yl]-acetic acid] | 2.9 | – |
| O=C(O)C(C1CCN(C(=O)Nc2ccc(Cl)cc2Cl)CC1)N1CCC(c2c[nH]c3ccccc23)CC1 (stereo not drawn) [Cpd 111, [1-(2,4-dichloro-phenylcarbamoyl)-piperidin-4-yl]-[4-(1H-indol-3-yl)-piperidin-1-yl]-acetic acid] | 11.2 | – |
| COC(=O)OCC(C1CCN(C(=O)/C=C/c2cc(F)cc(F)c2)CC1)N1CCC(c2ccc(Cl)cc2)CC1 (stereo not drawn) [Cpd 250, carbonic acid 2-[4-(4-chloro-phenyl)-piperidin-1-yl]-2-{1-[(2E)-3-(3,5-difluoro-phenyl)-acryloyl]-piperidin-4-yl}-ethyl ester methyl ester] | 2.9 | – |
| COc1cccc2c(C3CCN(C(CO)C4CCN(C(=O)OC(C)(C)C)CC4)CC3)c[nH]c12 (stereo not drawn) [Cpd 131, 4-{2-hydroxy-1-[4-(7-methoxy-1H-indol-3-yl)-piperidin-1-yl]-ethyl}-piperidine-1-carboxylic acid tert-butyl ester] | 3.9 | – |
| N=C(NC(=O)c1cc(F)cc(F)c1)N1CCC(C(C(=O)O)N2CCC(c3c[nH]c4ccccc34)CC2)CC1 (stereo not drawn) [Cpd 51, {1-[(3,5-difluoro-benzoylamino)-imino-methyl]-piperidin-4-yl}-[4-(1H-indol-3-yl)-piperidin-1-yl]-acetic acid] | 0.3 | – |
| O=C(/C=C/c1ccc(Cl)c(Cl)c1)N1CCC(C(CO)N2CCC(c3nccs3)CC2)CC1 (stereo not drawn) [Cpd 196] | 5.7 | – |
| O=C(O)C(C1CCN(C(=O)/C=C/c2cc(F)c(F)c(F)c2)CC1)N1CCC(c2ccc(Cl)cc2)CC1 (stereo not drawn) [Cpd 4, [4-(4-chloro-phenyl)-piperidin-1-yl]-{1-[(2E)-3-(3,4,5-trifluoro-phenyl)-acryloyl]-piperidin-4-yl}-acetic acid] | 0.37 | – |
